Assay results published in BindingDB's records for doi:10.1021/jm800503y (University of Queensland, 2008).

Target: T1, Genome polyprotein [1424-1463]/[1502-1685] (West Nile virus, UniProt P06935)
T1 construct: 1424-1463; 1502-1685
T1 sequence (P06935 whole entry) 1: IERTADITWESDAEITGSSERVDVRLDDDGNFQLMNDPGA
T1 sequence (P06935 whole entry) 2: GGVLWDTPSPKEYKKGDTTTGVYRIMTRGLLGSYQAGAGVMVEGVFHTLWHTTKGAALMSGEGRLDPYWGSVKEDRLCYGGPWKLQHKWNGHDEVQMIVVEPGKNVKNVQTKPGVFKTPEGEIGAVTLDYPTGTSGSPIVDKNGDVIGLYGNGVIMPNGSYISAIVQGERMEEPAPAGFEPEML
Assay: In Vitro Enzyme Inhibition
Conditions: pH 9.5; 37 °C
Procedure: Inhibition of WNV protease activity was measured using recombinant WNV protease, which first incubated with inhibitor in 96-well plates. Catalysis was initiated by adding the substrate. Cleavage of the pNA chromophore from substrate produced a color change monitored at 405 nm. Optical density was measured every 30 s for 10 min by a Spectromax 250 reader, and Ki values were determined by Graphpad Prism.

SMILES	IC50 [nM]	Ki [nM]
COc1ccc2cc([C@H](C)C(=O)N[C@@H](CCCCN)C(=O)N[C@@H](CCCCN)C(=O)N[C@H](C=O)CCCN=C(N)N)ccc2c1 [(2S)-6-amino-N-[(1S)-5-amino-1-{[(2S)-5-carbamimidamido-1-oxopentan-2-yl]carbamoyl}pentyl]-2-[(2S)-2-(6-methoxynaphthalen-2-yl)propanamido]hexanamide]	112	20
NCCCC[C@H](NC(=O)C=Cc1ccccc1)C(=O)N[C@@H](CCCCN)C(=O)N[C@H](C=O)CCCN=C(N)N [(2S)-6-amino-2-[(2S)-6-amino-2-[(2E)-3-phenylprop-2-enamido]hexanamido]-N-[(2S)-5-carbamimidamido-1-oxopentan-2-yl]hexanamide]	580	104
